Consider 2 compounds from US10351525B2, “Beta lactamase inhibitors” (Oxford University Innovation Limited, priority 2014, dated 2019).

The target of one experiment is T1, VIM-2 (Escherichia coli, UniProt Q5U7L7).
T1 construct: made in house; host or cells: Escherichia coli
As to conditions: Spicer et al, NIH Probe Reports 2010, read-out: IC50 against VIM-2, reported value; cited from earlier work.

The next experiment relates to K. pneumoniae KP120. Nature of the experiment: MEM/ML302F treatment assay in infected G. mellonella larvae. The experiment is classed as in vivo. Particulars: KP 120 infection; 96 hrs; MEM 0.6 mg/kg, ML302F 4.8 mg/kg, alone or combined (1:8). As for the experimental part: (§1) The activity of MEM and ML302F alone and in combination were assessed using 16 G. mellonella larva as described by M. Hornsey and D. W. Wareham (Antimicrob. Agents Chemother., 2011, 55(7), 3534-3537). Larvae were inoculated with P. aeruginosa GR57, E. coli EC98 and K. pneumoniae KP120. In combination therapies, a fixed ratio (1:8) of MEM:ML302F containing 0.6 mg/Kg of MEM8 and 4.8 mg/Kg of ML302F was administered in 10 μL injections to infected larvae. PBS injections (10 μL) were used as both controls for no antimicrobial therapy and inoculation injury. Larvae were scored for survival over 96 hrs and kill curves analysed by the log-rank test for trend. Relative risk (RR) of survival between the different treatment arms was calculated using Fisher's exact test with, two-tailed P-values of <0.05 considered statistically significant.

Experiment [1] relates to P. aeruginosa GR57. The experiment is described as above. The experiment is classed as in vivo. As to conditions: PA GR57 infection; 96 hrs; MEM 0.6 mg/kg, ML302F 4.8 mg/kg, alone or combined (1:8). The protocol: as §1
Another experiment deals with E. coli EC98. Described as above. Particulars: EC 98 infection; 96 hrs; MEM 0.6 mg/kg, ML302F 4.8 mg/kg, alone or combined (1:8). The experiment is classed as in vivo. As for the experimental part:
as §1

The next experiment has as its system K. pneumoniae GR54. Nature of the experiment: MIC of MEM with and without ML302F (1:8), VIM-1 producer. It counts as cell-based. Particulars: Klebsiella pneumoniae. The protocol: (§2) In a further study, antimicrobial activities of MEM and ML302F alone and in combination were assessed in-vitro against 31 VIM-producing clinical isolates.
In another experiment the test system is P. stuartii 70. The description is as above. Particulars: Providencia stuartii; P. stuartii 70 (VIM-1); MEM alone or with ML302F (1:8). The experiment is classed as cell-based. The protocol:
as §2

The test system of a further experiment is P.. stuartii 67. Described as above. As to conditions: Providencia stuartii; P. stuartii 67 (VIM-1); MEM alone or with ML302F (1:8). It counts as cell-based. The protocol: as §2
The test system of a further experiment is K. pneumoniae 177. The experiment is described as above. As to conditions: Klebsiella pneumoniae; K. pneumoniae 177 (VIM-1); MEM alone or with ML302F (1:8). The experiment is classed as cell-based. As for the experimental part: as §2
Experiment [2] has as its system K. pneumoniae NCTC 5055 (wt). Kind of experiment: Meropenem MIC with and without inhibitor. As to conditions: Klebsiella pneumoniae, NCTC5055, read-out: Meropenem MIC in the absence of inhibitor. It counts as cell-based. The protocol: (§3) Further studies were carried out to determine if ML302F/ML302 potentiates β-lactam antibiotic activity in clinically derived strains containing IMP-1, IMP-4, VIM-4 or NDM-1, which are the most commonly observed MBLs in clinical isolates. All strains producing MBLs were confirmed as resistant to meropenem at the Clinical and Laboratory Standards Institute (U.S.A.) defined breakpoint of 8 μg/mL for Enterobacteriace (see Table 2 below). The minimum inhibitory concentration (MIC) of meropenem against wildtype and MBL producing Escherichia coli and Klebsiella pneumoniae strains was determined with and without increasing concentrations of ML302 or ML302F. Clinical and Laboratory Standards Institute. 2012. Methods for dilution antimicrobial susceptibility tests for bacteria that grow aerobically; 9th ed. Approved standard M07-A9. CLSI, Wayne, Pa.; and Clinical and Laboratory Standards Institute. 2012. Performance standards for antimicrobial susceptibility testing; 22nd informational supplement M100-S22. CLSI, Wayne, Pa.

A further experiment concerns E. coli 25722 (wt). Kind of experiment: Meropenem MIC with and without inhibitor. The experiment is classed as cell-based. As to conditions: Escherichia coli, read-out: Meropenem MIC in the absence of inhibitor. The protocol:
as §3

A further experiment relates to P. aeruginosa 6 (14). Nature of the experiment: MIC of MEM with and without ML302F (1:8), VIM-2 producer. The experiment is classed as cell-based. Particulars: Pseudomonas aeruginosa. As for the experimental part: as §2
The test system of experiment [3] is P. aeruginosa GR57. Described as above. It counts as cell-based. Particulars: Pseudomonas aeruginosa; P. aeruginosa GR57 (VIM-2); MEM alone or with ML302F (1:8). The protocol:
as §2

In the next experiment the test system is P. aeruginosa GR64. Described as above. The experiment is classed as cell-based. Particulars: Pseudomonas aeruginosa; P. aeruginosa GR64 (VIM-2); MEM alone or with ML302F (1:8). The protocol: as §2
The subject of another experiment is P. aeruginosa GR62. The experiment is described as above. The experiment is classed as cell-based. As to conditions: Pseudomonas aeruginosa; P. aeruginosa GR62 (VIM-2); MEM alone or with ML302F (1:8). As for the experimental part:
as §2

In another experiment the test system is P. aeruginosa 9 (13). Described as above. It counts as cell-based. As to conditions: Pseudomonas aeruginosa. The protocol: as §2
The subject of another experiment is P. aeruginosa 47. Described as above. The experiment is classed as cell-based. As to conditions: Pseudomonas aeruginosa; P. aeruginosa 47 (VIM-2); MEM alone or with ML302F (1:8). The protocol: as §2
The subject of another experiment is P. aeruginosa 11 (13). Described as above. The experiment is classed as cell-based. Particulars: Pseudomonas aeruginosa; P. aeruginosa 11 (13) (VIM-2); MEM alone or with ML302F (1:8). As for the experimental part:
as §2

Another experiment deals with P. aeruginosa 27 (14). The description is as above. The experiment is classed as cell-based. As to conditions: Pseudomonas aeruginosa; P. aeruginosa 27 (14) (VIM-2); MEM alone or with ML302F (1:8). As for the experimental part: as §2
The next experiment concerns P. aeruginosa 14 (14). Described as above. The experiment is classed as cell-based. Particulars: Pseudomonas aeruginosa; P. aeruginosa 14 (14) (VIM-2); MEM alone or with ML302F (1:8). The protocol: as §2
The next experiment has as its system P. aeruginosa GR58. The experiment is described as above. As to conditions: Pseudomonas aeruginosa; P. aeruginosa GR58 (VIM-2); MEM alone or with ML302F (1:8). It counts as cell-based. As for the experimental part: as §2
The next experiment has as its system K. pneumoniae 196. Nature of the experiment: MIC of MEM with and without ML302F (1:8), VIM-4 producer. It counts as cell-based. As to conditions: Klebsiella pneumoniae; K. pneumoniae 196 (VIM-4); MEM alone or with ML302F (1:8). As for the experimental part:
as §2

Another experiment has as its system K. oxytoca 126. The experiment is described as above. Particulars: Klebsiella oxytoca; K. oxytoca 126 (VIM-4); MEM alone or with ML302F (1:8). It counts as cell-based. The protocol: as §2
The next experiment concerns K. oxytoca 95. The experiment is described as above. It counts as cell-based. Particulars: Klebsiella oxytoca; K. oxytoca 95 (VIM-4); MEM alone or with ML302F (1:8). As for the experimental part: as §2

Bounds are passed on as bounds.

`CN1CCN(NC(=O)CN2C(=O)C(=Cc3c(Cl)ccc(Cl)c3Cl)SC2=S)CC1` (mixture of isomers) [ML302, N-(4-Methylpiperazin-1-yl)-2-(4-oxo-2-thioxo-5-(2,3,6-trichlorobenzylidene)thiazolidin-3-yl)acetamide]: the IC50 on VIM-2 is 548 nM.

Consider `C[C@@H](O)[C@H]1C(=O)N2C(C(=O)O)=C(S[C@@H]3CN[C@H](C(=O)N(C)C)C3)[C@H](C)[C@H]12` [Meropenem, meropenem], for which the “% survival of infected larvae” value with K. pneumoniae KP120 stood at 69%; with P. aeruginosa GR57 [1] it was 23%; in the experiment on E. coli EC98, 44%. Also, the MIC in the experiment on K. pneumoniae GR54 is 128 µg/mL; with P. stuartii 70 it was 8 µg/mL; with P.. stuartii 67, 8 µg/mL; in the experiment with K. pneumoniae 177, 1 µg/mL; in experiment [2], at most 0.25 µg/mL; in the experiment with E. coli 25722 (wt), at most 0.25 µg/mL. The MIC with P. aeruginosa 6 (14) was 128 µg/mL; in the experiment with P. aeruginosa GR57 [3] it was 32 µg/mL; in the experiment with P. aeruginosa GR64 it was 32 µg/mL; with P. aeruginosa GR62 it was 32 µg/mL; in the experiment with P. aeruginosa 9 (13), 128 µg/mL; in the experiment on P. aeruginosa 47, 32 µg/mL. Also, the MIC in the experiment on P. aeruginosa 11 (13) worked out at 32 µg/mL; with P. aeruginosa 27 (14) it was 64 µg/mL; with P. aeruginosa 14 (14) it was 64 µg/mL; in the experiment on P. aeruginosa GR58, 32 µg/mL; with K. pneumoniae 196, 16 µg/mL; in the experiment with K. oxytoca 126, 32 µg/mL. The MIC with K. oxytoca 95 was found to be 32 µg/mL.
